Results taken from patent publication US7699995B2, “Water treatment method” (priority 2006, dated 2010).
Values after ≈ are worked out from the molar mass of the structure shown.

What was measured:
[1] = tested on: Bacteria; experiment: MIC, average over bacteria; type: cell-based
Procedure: (§1) Minimum inhibitory concentration (MIC) studies were conducted to determine the lowest level of biocide required to inhibit growth of bacteria and fungi. Tests were conducted in 96-well microtiter plates. Biocides were added to growth media in the plates and serially diluted to obtain a range of concentrations. Bacterial tests were conducted in trypticase soy broth (TSB; pH 7) using an overnight inoculum added at 10^6 colony forming units per ml. […] Fungal tests were conducted in malt extract broth (MEB; pH 4.7) using an 5-7 day inoculum added at 10^4 colony forming units per ml.

[2] = Stability in high pH metalworking fluid use dilutions (HPLC); type: physicochemical; settings: for % MIT Remaining: 25° C.
Procedure: Stability studies were conducted in three high pH metalworking fluid use dilutions to compare the persistence of MIT biocide versus CMIT biocide, tested alone and in combination with MCC). Aliquots of the use-diluted fluids were dosed with 17.5 ppm active CMIT/MIT and CMIT/MIT/MCC and stored at 25° C. Biocide concentrations were determined at time zero and weekly using high performance liquid chromatography (HPLC) analysis.

[3] = tested on: Shewanella putrefaciens; experiment: MIC, bacteria, TSB pH 7; type: cell-based; settings: 48 h
Procedure: as §1

[4] = tested on: Enterobacter aerogenes; experiment: MIC, bacteria, TSB pH 7; type: cell-based; settings: Klebsiella aerogenes, 48 h
Procedure: as §1

[5] = tested on: Pseudomonas aeruginosa; experiment: MIC, bacteria, TSB pH 7; type: cell-based; settings: 48 h, TSB pH 7, 25° C., two days
Procedure: as §1

[6] = tested on: Pseudomonas putida; experiment: MIC, bacteria, TSB pH 7; type: cell-based; settings: 48 h
Procedure: as §1

[7] = tested on: Citrobacter freundii; experiment: MIC, bacteria, TSB pH 7; type: cell-based; settings: 48 h, TSB pH 7, 25° C., two days
Procedure: as §1

[8] = tested on: Proteus mirabilis; experiment: MIC, bacteria, TSB pH 7; type: cell-based; settings: 48 h
Procedure: as §1

[9] = tested on: Pseudomonas oleovorans; experiment: MIC, bacteria, TSB pH 7; type: cell-based
Procedure: as §1

[10] = tested on: Alcaligenes faecalis; experiment: MIC, bacteria, TSB pH 7; type: cell-based; settings: 48 h
Procedure: as §1

[11] = tested on: Enterobacter cloacae; experiment: MIC, bacteria, TSB pH 7; type: cell-based; settings: 48 h
Procedure: as §1

[12] = tested on: Klebsiella pneumoniae; experiment: MIC, bacteria, TSB pH 7; type: cell-based; settings: 48 h
Procedure: as §1

[13] = tested on: Pseudomonas fluorescens; experiment: MIC, bacteria, TSB pH 7; type: cell-based; settings: 48 h, TSB pH 7, 25° C., two days
Procedure: as §1

[14] = tested on: Escherichia coli; experiment: MIC, bacteria, TSB pH 7; type: cell-based; settings: 48 h
Procedure: as §1

For `Cn1sccc1=O` [MI, 2-methyl-4-isothiazolin-3-one], the MIC ([1]; average over the bacteria tested) was 24 mg/L (≈ 208 µM), the “MI: CMI + MI MIC Ratio” value ([1]; bacteria, ratio of average MICs) was 10.9 and the “% MIT Remaining” value ([2]; Soluble Fluid 1 (pH 9.2), 2 wk) was 95%. The “% MIT Remaining” value ([2]; Soluble Fluid 1 (pH 9.2), 4 wk) was 100%, the “% MIT Remaining” value ([2]; Soluble Fluid 3 (pH 9.3), 2 wk) was 95% and the “% MIT Remaining” value ([2]; Soluble Fluid 3 (pH 9.3), 4 wk) was 100%. The “% MIT Remaining” value ([2]; Synthetic Fluid 2 (pH 9.4), 1 wk) was 92%, the “% MIT Remaining” value ([2]; Synthetic Fluid 2 (pH 9.4), 3 wk) was 94% and the biocide active retained ([2]; after 3-4 weeks in all three high pH use-diluted fluids) was “greater than 90%”. The MIC [3] was 13 mg/L (≈ 113 µM), the MIC [4] was 82 mg/L (≈ 712 µM) and the MIC ([5]; first listed) was 15 mg/L (≈ 130 µM). The MIC ([5]; second listed) was 25 mg/L (≈ 217 µM), the MIC [6] was 13 mg/L (≈ 113 µM) and the MIC ([7]; first listed) was 25 mg/L (≈ 217 µM). The MIC ([7]; second listed) was 41 mg/L (≈ 356 µM), the MIC [8] was 21 mg/L (≈ 182 µM) and the MIC ([9]; Ectopseudomonas oleovorans, 48 h, pH 7) was 6 mg/L (≈ 52.1 µM). It also gave an MIC ([9]; Pseudomonas oleovorans, second listed, TSB pH 7, 25° C., two days) of 6 ppm, an MIC [10] of 28 mg/L (≈ 243 µM) and an MIC [11] of 25 mg/L (≈ 217 µM). It also gave an MIC [12] of 12 mg/L (≈ 104 µM), an MIC ([13]; first listed) of 31 mg/L (≈ 269 µM) and an MIC ([13]; second listed) of 16 mg/L (≈ 139 µM). It also gave an MIC [14] of 31 mg/L (≈ 269 µM).
